Measured values taken from patent USRE37781E1, “Substituted cyclic carbonyls and derivatives thereof useful as retroviral protease inhibitors” (DuPont Pharmaceuticals Company, priority 1991, dated 2002).
Where two headings read alike, the source gives them in different places.

Key:
HIV protease = biological target: T1, HIV protease (Human immunodeficiency virus type 1 group M subtype B, UniProt P04585); experiment: biochemical; design: species or system HIV-1; details: Table 1a
T1 construct: plasmid containing HIV protease under the control of an inducible T7 promoter; made in house; host or cells: E. coli (inclusion bodies, T7 promoter)
Protocol: HIV Protease Inhibition Assay—Spectroscopic Method
Inclusion bodies were solubilized in 8M urea, 50 mM tris pH 8.0. Protease activity was recovered by dilution 20-fold into buffer containing 50 mM sodium acetate pH 5.5, 1 mM EDTA, 10% glycerol and 5% ethylene glycol. Enzyme was used at a final concentration of 1.0-10 ug/ml.
Stock solutions of 10 mM were prepared in DMSO.
All further dilutions were done in DMSO.

[1] = test system: HIV(3B) or HIV(RF) in MT-2 cells; format: cell-based; design: scale not given here; details: Table E, whole cell infectivity assay
Protocol: HIV Low Multiplicity Assay
Materials: MT-2, a human T-cell line, was cultured in RPMI medium supplemented with 5% (v/v) heat inactivated fetal calf serum (FCS), L-glutamine and gentamycin (GIBCO). Human immunodeficiency virus strains HIV (3B) and HIV (RF) were propagated in H-9 cells in RPMI with 5% FCS. XTT, benzene-sulfonic acid, 3,3′-[1-[(phenylamino) carbonyl]-3,4-tetrazolium]bis (4-methoxy-6nitro)-, sodium salt, was obtained from Starks Associates, Inc.
Method: Test compounds were dissolved in dimethylsulfoxide to 5 mg/ml and serially diluted into RPMI medium to ten times the desired final concentration. MT-2 cells (5×10^4/0.1 mL) were added to each well of a 96 well culture plate and 0.02 mL of the appropriate test compound solution was added to the cells such that each compound concentration was present in two wells. The cells and compounds were allowed to sit for 30 minutes at room temperature. HIV(3B) or HIV(RF) (−5×10^5 plaque foaming units/mL) was diluted in medium and added to the cell and compound mixtures to give a multiplicity of infection of 0.01 plaque forming unit/cell. The mixtures were incubated for 7 days at 36° C., during which time the virus replicated and caused the death of unprotected cells. The percentage of cells protected from virus induced cell death was determined by the degree of metabolism of the tetrazolium dye, XTT. In living cells, XTT was metabolized to a colored formazan product which was quantitated spectrophotometrically at 450 nm. The amount of colored formazan was proportional to the number of cells protected from virus by the test compound. The concentration of compound protecting either 50% (IC50) or 90% (IC90) with respect to an uninfected cell culture was determined.

[2] = biological target: single-chain tethered dimer of HIV protease (Human immunodeficiency virus 1, UniProt P04585); experiment: biochemical; format: biochemical
Protocol: HIV Protease Inhibition Assay—HPLC Method
Active protease was prepared as described therein by extraction with 67% acetic acid, dilution 33-fold with water, dialysis against water and then against a “refolding buffer” consisting of 20 mM MES, 1 mM dithiothreitol and 10% glycerol. Protease was stored as a stock preparation at 10 uM in refolding buffer.
Substrate: Peptide of sequence: aminobenzoyl-Ala-Thr-His-Gln-Val-Tyr-Phe(NO2)-Val-Arg-Lys-Ala containing p-nitrophenylalanine, was prepared by solid phase synthesis as previously described Cheng et al., op.cit. Stock solutions of 2 mM substrate were prepared in DMSO.
Inhibitory compounds were dissolved in sufficient DMSO to make 3 mM stock solutions. All further dilutions were prepared in “assay buffer”: 1M NaCl, 50 mM MES, pH 5.5, 1 mM EDTA, 1 mM DTT, […] glycerol.
Enzyme reaction: In a 2 ml screw-cap centrifuge tube were added 50 ul protease (final concentration 0.25 nM) and 0.1 ml inhibitory compound (final concentration […]). After 15 min preincubation at room temperature, the reaction was started with the addition of 0.05 ml substrate (final concentration 5 uM). Incubation was carried out at 30 C. for 1 hr. The reaction was stopped with 1 ml 0.1M ammonium hydroxide.
HPLC measurement of product formation: The product (aminobenzoyl-Ala-Thr-His-Gln-Val-Tyr) was separated from substrate on a Pharmacia MonoQ anion exchange column. The injection volume was 0.2 ml. The mobile phases were: A (20 mM trisHCl, pH 9.0, 0.02% sodium Azide, 10% acetonitrile), B (20 mM tris HCl, pH 9.0, 0.02% sodium azide, 0.5M ammonium formate, 10% acetonitrile). The mobile phases were pumped at 1 ml/min, with a gradient from 0 to 30% B in 5 min, 100% B for 4 min to wash the column, and a re-equilibration for 4 min. The retention time of the product was 3.6 min. Detection with a Shimadzu model RF535 fluorescence monitor was at 330 nm (excitation) and 430 (emission).

HIV-1 (RF) in MT-2 cells = experiment: microbe, parasite or virus in culture; format: cell-based; details: Human immunodeficiency virus 1, MT2, HIV RNA assay, HIV-1 infected MT-2 cells; class symbols; read-out: IC90
How it was run: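 HIV-1 laboratory strains (RF, MN, IIIB) grown in H9 cells in RPMI 1640 with 5% FCS; infections in MT-2 cells. Viral RNA quantified by hybridization with biotinylated gag/pol capture probes on streptavidin plates and alkaline phosphatase-conjugated reporter probes; BH10 gag-pol in vitro transcripts serve as RNA standards.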

Row | SMILES | melting point | Ki (HIV protease; read-out: Ki) | IC90 [1] | Ki (HIV protease; Ki) | Ki [2] | IC90 (HIV-1 (RF) in MT-2 cells)
1 | CC(C)CCN1C(=O)N(CCC(C)C)C(Cc2ccccc2)C(O)C(O)C1Cc1ccccc1 (stereo not drawn) [Example 1AH] | 194 to 195 °C | < 10 nM | + + + |  |  | 
2 | CCCCN1C(=O)N(CCCC)C(Cc2ccccc2)C(O)C(O)C1Cc1ccccc1 (stereo not drawn) [Example 1Z] |  | < 10 nM | + + + |  |  | 
3 | C=CCN1C(=O)N(CC=C)C(Cc2ccccc2)C(O)C(O)C1Cc1ccccc1 (stereo not drawn) [Example 1C] |  |  | + + + | < 10 nM |  | 
4 | CC(C)=CCN1C(=O)N(CC=C(C)C)C(Cc2ccccc2)C(O)C(O)C1Cc1ccccc1 (stereo not drawn) [Example 1AC] | 160 to 163 °C | < 10 nM | + + + |  |  | 
5 | C=CCN1C(=O)N(Cc2ccccn2)C(Cc2ccccc2)C(O)C(O)C1Cc1ccccc1 (stereo not drawn) [Example 5C] | 160 to 162 °C |  |  |  | 10 to 1000 nM | < 10 µg/mL
6 | C=CCN1C(=O)N(Cc2ccc3ccccc3c2)C(Cc2ccccc2)C(O)C(O)C1Cc1ccccc1 (stereo not drawn) [Example 4S] | 72 to 74 °C |  |  |  | < 10 nM | < 10 µg/mL
7 | O=C1N(Cc2ccc3ccccc3c2)C(Cc2ccccc2)C(O)C(O)C(Cc2ccccc2)N1Cc1ccccn1 (stereo not drawn) [Example 4Y] | 165 to 166 °C |  |  |  | 10 to 1000 nM | < 10 µg/mL
8 | N#Cc1ccc(CN2C(=O)N(Cc3ccc(C#N)cc3)C(Cc3ccccc3)C(O)C(O)C2Cc2ccccc2)cc1 (stereo not drawn) [Example 5W] | 140 to 143 °C |  |  |  | < 10 nM | < 10 µg/mL
9 | O=C1N(Cc2cccc(C=NO)c2)C(Cc2ccccc2)C(O)C(O)C(Cc2ccccc2)N1Cc1cccc(C=NO)c1 (stereo not drawn) [Example 6C] | 185 to 189 °C |  |  |  | < 10 nM | < 10 µg/mL
10 | CCCCN1C(=O)N(Cc2ccccc2)C(Cc2ccccc2)C(O)C(O)C1Cc1ccccc1 (stereo not drawn) [Example 3V] | 89 to 91 °C |  |  |  | < 10 nM | < 10 µg/mL
11 | O=C1NC(Cc2ccccc2)C(O)C(O)C(Cc2ccccc2)N1Cc1ccc(F)cc1 (stereo not drawn) [Example 6ZF] | 188.9 °C |  |  |  | < 10 nM | < 10 µg/mL
12 | O=C1N(Cc2ccc(OCc3ccccc3)cc2)C(Cc2ccccc2)C(O)C(O)C(Cc2ccccc2)N1Cc1ccc(OCc2ccccc2)cc1 (stereo not drawn) [Example 5P] | 80 to 81 °C |  |  |  | > 1000 nM | > 100 µg/mL
13 | N#Cc1cccc(CN2C(=O)N(Cc3cccc(C#N)c3)C(Cc3ccccc3)C(O)C(O)C2Cc2ccccc2)c1 (stereo not drawn) [Example 4P] | 225 to 227 °C |  |  |  | < 10 nM | < 10 µg/mL
14 | O=C1N(Cc2ccncc2)C(Cc2ccccc2)C(O)C(O)C(Cc2ccccc2)N1Cc1ccc2ccccc2c1 (stereo not drawn) [Example 4Z] | 118 to 121 °C |  |  |  | < 10 nM | < 10 µg/mL
15 | CCCN1C(=O)N(CCC)C(Cc2ccccc2)C(O)C(O)C1Cc1ccccc1 (stereo not drawn) [Example 1AF] | 180 to 182 °C |  | + + + |  |  | 
16 | O=C1NC(Cc2ccccc2)C(O)C(O)C(Cc2ccccc2)N1Cc1ccc2ccccc2c1 (stereo not drawn) [Example 4V] | 210 to 213 °C |  |  |  | < 10 nM | < 10 µg/mL

Row | SMILES | melting point | Ki (HIV protease; read-out: Ki) | IC90 [1] | Ki (HIV protease; Ki) | Ki [2] | IC90 (HIV-1 (RF) in MT-2 cells)
17 | COCCN1C(=O)N(CCOC)C(Cc2ccccc2)C(O)C(O)C1Cc1ccccc1 (stereo not drawn) [Example 3N] | 183 to 185 °C |  |  |  | 10 to 1000 nM | > 100 µg/mL
18 | O=C1N(Cc2ccc(F)cc2)C(Cc2ccccc2)C(O)C(O)C(Cc2ccccc2)N1Cc1ccc2ccccc2c1 (stereo not drawn) [Example 5Q] | 105 to 107 °C |  |  |  | < 10 nM | < 10 µg/mL
19 | CCN1C(=O)N(Cc2ccccc2)C(Cc2ccccc2)C(O)C(O)C1Cc1ccccc1 (stereo not drawn) [Example 4A] | 190 to 193 °C |  |  |  | < 10 nM | < 10 µg/mL
20 | O=C1N(Cc2cccnc2)C(Cc2ccccc2)C(O)C(O)C(Cc2ccccc2)N1Cc1ccc2ccccc2c1 (stereo not drawn) [Example 5H] | 94 to 96 °C |  |  |  | < 10 nM | < 10 µg/mL
21 | CC(C)(C)CCN1C(=O)N(CCC(C)(C)C)C(Cc2ccccc2)C(O)C(O)C1Cc1ccccc1 (stereo not drawn) [Example 3P] | 242 to 245 °C |  |  |  | 10 to 1000 nM | > 100 µg/mL
22 | CCCCN1C(=O)N(Cc2ccc3ccccc3c2)C(Cc2ccccc2)C(O)C(O)C1Cc1ccccc1 (stereo not drawn) [Example 4U] | 78 to 80 °C |  |  |  | < 10 nM | < 10 µg/mL
23 | CCOCCN1C(=O)N(CCOCC)C(Cc2ccccc2)C(O)C(O)C1Cc1ccccc1 (stereo not drawn) [Example 3R] | 148 to 150 °C |  |  |  | > 1000 nM | > 100 µg/mL
24 | O=C1N(Cc2c(F)c(F)c(F)c(F)c2F)C(Cc2ccccc2)C(O)C(O)C(Cc2ccccc2)N1Cc1c(F)c(F)c(F)c(F)c1F (stereo not drawn) [Example 4J] | 193 to 195 °C |  |  |  | > 1000 nM | < 10 µg/mL
25 | O=C1N(Cc2ccc(O)cc2)C(Cc2ccccc2)C(O)C(O)C(Cc2ccccc2)N1Cc1ccc(O)cc1 (stereo not drawn) [Example 5R] | 115 to 117 °C |  |  |  | < 10 nM | < 10 µg/mL
26 | O=Cc1cccc(CN2C(=O)N(Cc3cccc(C=O)c3)C(Cc3ccccc3)C(O)C(O)C2Cc2ccccc2)c1 (stereo not drawn) [Example 5V] | 175 to 176 °C |  |  |  | < 10 nM | < 10 µg/mL
27 | C=CCOc1cccc(CN2C(=O)N(Cc3cccc(O)c3)C(Cc3ccccc3)C(O)C(O)C2Cc2ccccc2)c1 (stereo not drawn) [Example 5M] | 78 to 79 °C |  |  |  | < 10 nM | < 10 µg/mL
28 | O=C1N(Cc2ccc3ccccc3c2)C(Cc2ccccc2)C(O)C(O)C(Cc2ccccc2)N1CC1CCCC1 (stereo not drawn) [Example 4L] | 89 to 92 °C |  |  |  | < 10 nM | < 10 µg/mL
29 | O=C1N(Cc2cccc(CO)c2)C(Cc2ccccc2)C(O)C(O)C(Cc2ccccc2)N1Cc1cccc(CO)c1 (stereo not drawn) [Example 5S] | 94 to 95 °C |  |  |  | < 10 nM | < 10 µg/mL
30 | O=C1N(Cc2cccc(Cl)c2)C(Cc2ccccc2)C(O)C(O)C(Cc2ccccc2)N1Cc1cccc(Cl)c1 (stereo not drawn) [Example 6X] | 210.3 °C |  |  |  | < 10 nM | < 10 µg/mL
31 | C=CCOc1cccc(CN2C(=O)N(Cc3cccc(OCC=C)c3)C(Cc3ccccc3)C(O)C(O)C2Cc2ccccc2)c1 (stereo not drawn) [Example 5L] | 170 to 172 °C |  |  |  | < 10 nM | > 100 µg/mL
32 | CC(C)N1C(=O)N(Cc2cccc(O)c2)C(Cc2ccccc2)C(O)C(O)C1Cc1ccccc1 (stereo not drawn) [Example 5Z] | 212 to 213 °C |  |  |  | < 10 nM | < 10 µg/mL
